Experimental data taken from PubChem BioAssay (NCI).
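Tested at 5 concentrations; 48 h exposure; 96-well plates; endpoints linearly interpolated, else capped at highest concentration. Abbreviation: GI50, concentration required for 50% inhibition of growth. TGI denotes the concentration required for complete inhibition of growth.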

Assays:
Experiment in all cases: growth of human tumour cells (NCI), 48 h
[1] = test system: SN12C renal
[2] = test system: ACHN renal
[3] = test system: SK-MEL-5 melanoma
[4] = test system: NCI-H226 lung
[5] = test system: BT-549 breast
[6] = test system: HCT-116 colon
[7] = test system: COLO 205 colon
[8] = test system: SF-539 CNS
[9] = test system: RXF 393 renal
[10] = test system: OVCAR-4 ovarian
[11] = test system: SK-MEL-2 melanoma
[12] = test system: U251 CNS
[13] = test system: SF-268 CNS
[14] = test system: KM12 colon
[15] = test system: MOLT-4 leukemia
[16] = test system: HCT-15 colon
[17] = test system: HT29 colon
[18] = test system: NCI-H23 lung
[19] = test system: NCI-H522 lung
[20] = test system: HS 578T breast
[21] = test system: M14 melanoma
[22] = test system: T-47D breast
[23] = test system: MCF7 breast
[24] = test system: HCC-2998 colon
[25] = test system: UACC-257 melanoma
[26] = test system: SK-OV-3 ovarian
[27] = test system: SK-MEL-28 melanoma
[28] = test system: SNB-19 CNS
[29] = test system: MDA-MB-231 breast
[30] = test system: UACC-62 melanoma
[31] = test system: MDA-MB-435
[32] = test system: TK-10 renal
[33] = test system: 786-0 renal
[34] = test system: SNB-75 CNS
[35] = test system: HOP-62 NSCLC
[36] = test system: HL-60(TB) leukemia
[37] = test system: SR leukemia
[38] = test system: A498 renal
[39] = test system: IGROV1 ovarian
[40] = test system: K-562 leukemia
[41] = test system: MALME-3M melanoma
[42] = test system: HOP-92 NSCLC
[43] = test system: OVCAR-5 ovarian
[44] = test system: CAKI-1 renal
[45] = test system: NCI-H460 lung
[46] = test system: A549 NSCLC
[47] = test system: NCI/ADR-RES ovarian
[48] = test system: LOX IMVI melanoma
[49] = test system: PC-3 prostate
[50] = test system: UO-31 renal
[51] = test system: OVCAR-3 ovarian
[52] = test system: RPMI-8226 leukemia
[53] = test system: CCRF-CEM leukemia
[54] = test system: SF-295 CNS
[55] = test system: SW-620 colon
[56] = test system: EKVX NSCLC
[57] = test system: DU-145 prostate
[58] = test system: OVCAR-8 ovarian

SMILES: CN1CCN(Cc2ccc(NC(=O)c3cncc(C#Cc4cnc5ccc(O[C@H]6CCOC6)nn45)c3)cc2C(F)(F)F)CC1
- GI50 [1]: 307 nM
- TGI [1]: 1060 nM
- GI50 [2]: 396 nM
- TGI [2]: 1040 nM
- GI50 [3]: 716 nM
- TGI [3]: 1400 nM
- GI50 [4]: 123 nM
- TGI [4]: 1040 nM
- GI50 [5]: 375 nM
- TGI [5]: 783 nM
- GI50 [6]: 45.6 nM
- TGI [6]: 212 nM
- GI50 [7]: 227 nM
- TGI [7]: 828 nM
- GI50 [8]: 171 nM
- TGI [8]: 771 nM
- GI50 [9]: 681 nM
- TGI [9]: 1440 nM
- GI50 [10]: 490 nM
- TGI [10]: 1340 nM
- GI50 [11]: 431 nM
- TGI [11]: 1120 nM
- GI50 [12]: 575 nM
- TGI [12]: 1280 nM
- GI50 [13]: 593 nM
- TGI [13]: 1420 nM
- GI50 [14]: 5 nM
- TGI [14]: 725 nM
- GI50 [15]: 289 nM
- TGI [15]: 2720 nM
- GI50 [16]: 385 nM
- TGI [16]: 1400 nM
- GI50 [17]: 194 nM
- TGI [17]: 826 nM
- GI50 [18]: 245 nM
- TGI [18]: 1000 nM
- GI50 [19]: 562 nM
- TGI [19]: 1320 nM
- GI50 [20]: 555 nM
- TGI [20]: 1590 nM
- GI50 [21]: 97.5 nM
- TGI [21]: 280 nM
- GI50 [22]: 934 nM
- TGI [22]: 2210 nM
- GI50 [23]: 149 nM
- TGI [23]: 752 nM
- GI50 [24]: 341 nM
- TGI [24]: 964 nM
- GI50 [25]: 653 nM
- TGI [25]: 1380 nM
- GI50 [26]: 848 nM
- TGI [26]: 1760 nM
- GI50 [27]: 410 nM
- TGI [27]: 1110 nM
- GI50 [28]: 1210 nM
- TGI [28]: 3240 nM
- GI50 [29]: 174 nM
- TGI [29]: 850 nM
- GI50 [30]: 488 nM
- TGI [30]: 1160 nM
- GI50 [31]: 159 nM
- TGI [31]: 705 nM
- GI50 [32]: 484 nM
- TGI [32]: 1130 nM
- GI50 [33]: 187 nM
- TGI [33]: 397 nM
- GI50 [34]: 295 nM
- TGI [34]: 795 nM
- GI50 [35]: 505 nM
- TGI [35]: 1280 nM
- GI50 [36]: 194 nM
- TGI [36]: 692 nM
- GI50 [37]: 284 nM
- TGI [37]: 1440 nM
- GI50 [38]: 871 nM
- TGI [38]: 1590 nM
- GI50 [39]: 177 nM
- TGI [39]: 818 nM
- GI50 [40]: 5 nM
- TGI [40]: 544 nM
- GI50 [41]: 97.6 nM
- TGI [41]: 438 nM
- GI50 [42]: 55.1 nM
- TGI [42]: 275 nM
- GI50 [43]: 381 nM
- TGI [43]: 1210 nM
- GI50 [44]: 226 nM
- TGI [44]: 744 nM
- GI50 [45]: 341 nM
- TGI [45]: 962 nM
- GI50 [46]: 475 nM
- TGI [46]: 1450 nM
- GI50 [47]: 1120 nM
- TGI [47]: 3100 nM
- GI50 [48]: 186 nM
- TGI [48]: 743 nM
- GI50 [49]: 720 nM
- TGI [49]: 2280 nM
- GI50 [50]: 270 nM
- TGI [50]: 853 nM
- GI50 [51]: 591 nM
- TGI [51]: 1290 nM
- GI50 [52]: 815 nM
- TGI [52]: 2740 nM
- GI50 [53]: 305 nM
- TGI [53]: 4760 nM
- GI50 [54]: 748 nM
- TGI [54]: 1510 nM
- GI50 [55]: 177 nM
- TGI [55]: 871 nM
- GI50 [56]: 623 nM
- TGI [56]: 1350 nM
- GI50 [57]: 521 nM
- TGI [57]: 1180 nM
- GI50 [58]: 675 nM
- TGI [58]: 1540 nM
